Test results: the OligoGym collection
Bases are written 5' to 3'; sugars and linkages follow in the same order, as letters with counts (s phosphorothioate, o phosphodiester; PS: all linkages phosphorothioate). C may stand for cytosine or 5-methylcytosine; the collection does not tell. l = locked nucleic acid (LNA); d = 2'-deoxy (DNA)

Target: HIF1A
Assay: HeLa, 100 nM transfected, 24 h, mean of 3
Conditions: ASO

Sequence	caspase activation (% of PBS control)
ACTGCCTTCTTAC (sugars l1 d1 l1 d7 l3, PS)	257
ACTGCCTTCTTAC (sugars l1 d1 l1 d8 l2, PS)	191
ACTGCCTTCTTAC (sugars l1 d1 l1 d9 l1, PS)	188
ACTGCCTTCTTAC (sugars l1 d1 l2 d6 l3, PS)	247
ACTGCCTTCTTAC (sugars l1 d1 l2 d7 l2, PS)	217
ACTGCCTTCTTAC (sugars l1 d1 l2 d8 l1, PS)	222
ACTGCCTTCTTAC (sugars l1 d2 l1 d6 l3, PS)	126
ACTGCCTTCTTAC (sugars l1 d2 l1 d7 l2, PS)	112
ACTGCCTTCTTAC (sugars l1 d2 l1 d8 l1, PS)	119
ACTGCCTTCTTAC (sugars l1 d9 l1 d1 l1, PS)	140
ACTGCCTTCTTAC (sugars l1 d9 l3, PS)	140
ACTGCCTTCTTAC (sugars l1 d10 l2, PS)	120
ACTGCCTTCTTAC (sugars l1 d11 l1, PS)	130
ACTGCCTTCTTAC (sugars l2 d1 l1 d6 l3, PS)	166
ACTGCCTTCTTAC (sugars l2 d1 l1 d7 l2, PS)	162
ACTGCCTTCTTAC (sugars l2 d1 l1 d8 l1, PS)	177
ACTGCCTTCTTAC (sugars l2 d8 l1 d1 l1, PS)	199
ACTGCCTTCTTAC (sugars l2 d8 l3, PS)	209
ACTGCCTTCTTAC (sugars l2 d9 l2, PS)	167
ACTGCCTTCTTAC (sugars l2 d10 l1, PS)	171
ACTGCCTTCTTAC (sugars l3 d7 l1 d1 l1, PS)	383
ACTGCCTTCTTAC (sugars l3 d7 l3, PS)	403

Sequence	caspase activation (% of PBS control)
ACTGCCTTCTTAC (sugars l3 d8 l2, PS)	339
ACTGCCTTCTTAC (sugars l3 d9 l1, PS)	332
ACTGCCTTCTTAC (sugars l4 d6 l1 d1 l1, PS)	393
ACTGCCTTCTTAC (sugars l4 d6 l3, PS)	410
ACTGCCTTCTTAC (sugars l4 d7 l2, PS)	406
ACTGCCTTCTTAC (sugars l4 d8 l1, PS)	387
ACTGCCTTCTTAC (sugars lddlddddddldl, PS)	118
ACTGCCTTCTTAC (sugars ldldddddddldl, PS)	208
ACTGCCTTCTTAC (sugars ldllddddddldl, PS)	217
ACTGCCTTCTTAC (sugars lldlddddddldl, PS)	146
CAAGCATCCTGTA (sugars l1 d1 l1 d7 l3, PS)	198
CAAGCATCCTGTA (sugars l1 d1 l1 d8 l2, PS)	171
CAAGCATCCTGTA (sugars l1 d1 l1 d9 l1, PS)	121
CAAGCATCCTGTA (sugars l1 d1 l2 d6 l3, PS)	134
CAAGCATCCTGTA (sugars l1 d1 l2 d7 l2, PS)	151
CAAGCATCCTGTA (sugars l1 d1 l2 d8 l1, PS)	145
CAAGCATCCTGTA (sugars l1 d2 l1 d6 l3, PS)	97
CAAGCATCCTGTA (sugars l1 d2 l1 d7 l2, PS)	107
CAAGCATCCTGTA (sugars l1 d2 l1 d8 l1, PS)	101
CAAGCATCCTGTA (sugars l1 d9 l1 d1 l1, PS)	92.1
CAAGCATCCTGTA (sugars l1 d9 l3, PS)	135
CAAGCATCCTGTA (sugars l1 d10 l2, PS)	111

Sequence	caspase activation (% of PBS control)
CAAGCATCCTGTA (sugars l1 d11 l1, PS)	100
CAAGCATCCTGTA (sugars l2 d1 l1 d6 l3, PS)	119
CAAGCATCCTGTA (sugars l2 d1 l1 d7 l2, PS)	133
CAAGCATCCTGTA (sugars l2 d1 l1 d8 l1, PS)	123
CAAGCATCCTGTA (sugars l2 d8 l1 d1 l1, PS)	175
CAAGCATCCTGTA (sugars l2 d8 l3, PS)	250
CAAGCATCCTGTA (sugars l2 d9 l2, PS)	189
CAAGCATCCTGTA (sugars l2 d10 l1, PS)	142
CAAGCATCCTGTA (sugars l3 d7 l1 d1 l1, PS)	302
CAAGCATCCTGTA (sugars l3 d7 l3, PS)	437
CAAGCATCCTGTA (sugars l3 d8 l2, PS)	302
CAAGCATCCTGTA (sugars l3 d9 l1, PS)	237
CAAGCATCCTGTA (sugars l4 d6 l1 d1 l1, PS)	159
CAAGCATCCTGTA (sugars l4 d6 l3, PS)	171
CAAGCATCCTGTA (sugars l4 d7 l2, PS)	212
CAAGCATCCTGTA (sugars l4 d8 l1, PS)	194
CAAGCATCCTGTA (sugars lddlddddddldl, PS)	100
CAAGCATCCTGTA (sugars ldldddddddldl, PS)	136
CAAGCATCCTGTA (sugars ldllddddddldl, PS)	130
CAAGCATCCTGTA (sugars lldlddddddldl, PS)	142
GCAAGCATCCTGT (sugars l1 d1 l1 d7 l3, PS)	239
GCAAGCATCCTGT (sugars l1 d1 l1 d8 l2, PS)	188

Sequence	caspase activation (% of PBS control)
GCAAGCATCCTGT (sugars l1 d1 l1 d9 l1, PS)	165
GCAAGCATCCTGT (sugars l1 d1 l2 d6 l3, PS)	186
GCAAGCATCCTGT (sugars l1 d1 l2 d7 l2, PS)	220
GCAAGCATCCTGT (sugars l1 d1 l2 d8 l1, PS)	191
GCAAGCATCCTGT (sugars l1 d2 l1 d6 l3, PS)	154
GCAAGCATCCTGT (sugars l1 d2 l1 d7 l2, PS)	151
GCAAGCATCCTGT (sugars l1 d2 l1 d8 l1, PS)	187
GCAAGCATCCTGT (sugars l1 d9 l1 d1 l1, PS)	124
GCAAGCATCCTGT (sugars l1 d9 l3, PS)	147
GCAAGCATCCTGT (sugars l1 d10 l2, PS)	112
GCAAGCATCCTGT (sugars l1 d11 l1, PS)	137
GCAAGCATCCTGT (sugars l2 d1 l1 d6 l3, PS)	267
GCAAGCATCCTGT (sugars l2 d1 l1 d7 l2, PS)	319
GCAAGCATCCTGT (sugars l2 d1 l1 d8 l1, PS)	314
GCAAGCATCCTGT (sugars l2 d8 l1 d1 l1, PS)	281
GCAAGCATCCTGT (sugars l2 d8 l3, PS)	401
GCAAGCATCCTGT (sugars l2 d9 l2, PS)	285
GCAAGCATCCTGT (sugars l2 d10 l1, PS)	279
GCAAGCATCCTGT (sugars l3 d7 l1 d1 l1, PS)	426
GCAAGCATCCTGT (sugars l3 d7 l3, PS)	600
GCAAGCATCCTGT (sugars l3 d8 l2, PS)	450
GCAAGCATCCTGT (sugars l3 d9 l1, PS)	346

Sequence	caspase activation (% of PBS control)
GCAAGCATCCTGT (sugars l4 d6 l1 d1 l1, PS)	305
GCAAGCATCCTGT (sugars l4 d6 l3, PS)	340
GCAAGCATCCTGT (sugars l4 d7 l2, PS)	352
GCAAGCATCCTGT (sugars l4 d8 l1, PS)	344
GCAAGCATCCTGT (sugars lddlddddddldl, PS)	109
GCAAGCATCCTGT (sugars ldldddddddldl, PS)	181
GCAAGCATCCTGT (sugars ldllddddddldl, PS)	176
GCAAGCATCCTGT (sugars lldlddddddldl, PS)	209
GGCAAGCATCCTG (sugars l1 d1 l1 d7 l3, PS)	721
GGCAAGCATCCTG (sugars l1 d1 l1 d8 l2, PS)	685
GGCAAGCATCCTG (sugars l1 d1 l1 d9 l1, PS)	339
GGCAAGCATCCTG (sugars l1 d1 l2 d6 l3, PS)	495
GGCAAGCATCCTG (sugars l1 d1 l2 d7 l2, PS)	688
GGCAAGCATCCTG (sugars l1 d1 l2 d8 l1, PS)	547
GGCAAGCATCCTG (sugars l1 d2 l1 d6 l3, PS)	397
GGCAAGCATCCTG (sugars l1 d2 l1 d7 l2, PS)	361
GGCAAGCATCCTG (sugars l1 d2 l1 d8 l1, PS)	205
GGCAAGCATCCTG (sugars l1 d9 l1 d1 l1, PS)	390
